Data: patent US20100197765A1, “METHOD FOR PROMOTING THE EXPRESSION OF P53, AND P53 EXPRESSION PROMOTER FOR USE IN THE METHOD” (THE UNIVERSITY OF TOKUSHIMA, priority 2007, published 2010)

Experiments:
Assay type in all cases: cell-based, human
parent cells HCT116 = experiment: apoptosis (TUNEL) in parental HCT116 cells with vegf siRNA and 5-FU; settings: parent cells HCT116, siRNA expressed and 80 mmol/L of 5-FU, 60 hours
Method: (§1) Apoptotic cells were evaluated by a TUNEL staining method using in situ Cell Death Detection kit (Roche Diagnostic). […] The counting was performed with respect to at least 300 cells in one measurement.
(§2) Various types of cells were treated with 5-FU, which is an anticancer agent inducing apoptosis in a p53-dependent manner, and the sensitivity to apoptosis was analyzed. The vegf siRNA#1 vectors expressing siRNA#1, the vegf siRNA #2 vectors expressing siRNA #2, and the control siRNA vectors described above respectively were transfected into HCT 116 (parent cells) and p53-deleted cells HCT116. Then, the cells after 18 hours from the transfection was treated for 60 hours in the presence of […] of 5-FU (+) or in the absence of 5-FU (−). The proportion (%) of apoptosis positive cells in the thus-treated cells was calculated based on “Apoptotic evaluation 2” above (means±SD, n=4).

[1] = system: noxa mRNA, puma mRNA, and p21 mRNA; experiment: expression of mRNAs induced in p53 pathways in HepG2 cells (Northern); settings: HepG2, 5-FU 30 μmol/L, 16 hours
Method: In the same manner, HepG2 cells transfected with each type of the vectors were treated for 16 hours in the presence of 5-FU (30 μmol/L) (+) or the absence of 5-FU (−). With respect to the treated cells, expression of noxa mRNA, puma mRNA, and p21 mRNA induced in p53 pathways was analyzed by the Northern blotting. […] In FIG. 1D, the first row from the top indicates expression of noxa mRNA, the second row indicates expression of puma mRNA, the third row indicates expression of p21 mRNA, and the fourth row indicates expression of gapdh mRNA. Definitions of the lanes in FIG. 1D are the same as those of FIG. 1C.

p53-deleted cells HCT116 = experiment: apoptosis (TUNEL) in p53-deleted HCT116 cells with vegf siRNA and 5-FU; settings: p53-deleted cells HCT116, 5-FU treated, 60 hours
Method: as §1, §2

bax mRNA and noxa mRNA = experiment: bax and noxa mRNA by quantitative RT-PCR in siRNA-transfected HCT116 cells; settings: HCT116, 5-FU 80 μmol/L, 24 hours, vs control
Method: Whether or not the increase in the 5-FU-induced expression of p53 mRNA caused by the knockdown of vegf IresRNA by vegf siRNA induces expression of mRNA of a bax gene or a noxa gene, which are both p53 target genes, was examined. Cells obtained by transfecting the same control siRNA vectors, vegf siRNA #1 vectors, or vegf siRNA #2 vectors as in the above into parent cells HCT116 were treated for 24 hours in the presence of 80 μmol/L of 5-FU (+) or in the absence of 5-FU (−). Thereafter, expressions of bax mRNA and noxa mRNA were analyzed by quantitative RT-PCR (means±SD, n=4).

HCT116 cells = experiment: apoptosis of siRNA-expressing HCT116 cells treated with low-concentration anticancer agents, with or without rVEGF; settings: for enhancement of apoptosis when cells were treated with rVEGF protein: HCT116, 1 ng/ml rVEGF plus anticancer agents; for apoptosis by treatments with anticancer agents of low concentrations: HCT116, etoposide 20 μmol/L, doxorubicin 170 nmol/L, 5-FU 40 μmol/L, 60 hours, vs untreated
Method: The recombinant vectors that express vegf siRNA#1 and #2 and the vectors that express control siRNA were transfected into HCT116 cells (parent cells, wild-type p53). As a control cell, an HCT116 cell not transfected with a recombinant vector that expresses siRNA was used. These four types of cells were treated in the presence or absence of various anticancer agents having the final concentrations as described below for 60 hours. As the anticancer agent, etoposide (20 μmol/L), doxorubicin (170 nmol/L), and 5-FU (40 μmol/L) were used. With respect to the treated cells, apoptosis (%) was quantified in the same manner as in Example A1.
UTR RNA and function of VEGF protein. With the aim of clarifying an effect of blocking the function of vegf 5′ UTR RNA, recombinant VEGF protein (R&D systems, hereinafter referred to as “rVEGF”) was added to a culture supernatant of cells transfected with vegf siRNA in order to add VEGF protein that is decreased due to siRNA. […] Therefore, in Example A9, 1 ng/ml of rVEGF protein was added to the four types of cells. […] Then, these transfection cells were treated with anticancer agents in the same manner as described above.

vegf mRNA [2] = experiment: vegf mRNA expression by Northern blotting in HepG2 cells expressing vegf siRNA; settings: HepG2, 18 hours after vector transfection, vs untransfected and control siRNA cells
Method: Total RNAs were extracted according to a guanidine thiocyanate method. Labeled cDNAs were produced using the following antisense primers, a klenow fragment (New England BioLabs, Inc., Inc.), and [α^−32P]dCTP, with the following cDNAs being templates. Thus obtained labeled cDNAs were used as probes for the Northern blotting.
The vegf siRNA #1 vectors, the vegf siRNA #2 vectors, and the control siRNA vectors were transfected into HepG2 cells (wild-type p53). These cells were cultured for 18 hours, and the expression level of vegf mRNA was analyzed by the Northern blotting. Also, with respect to the HepG2 cells not transfected with the vectors, the analysis was performed in the same manner. At the time of analysis, gapdh mRNA in each type of the cells was monitored as a loading control (hereinafter, the same applies). The cells were cultured using DMEM medium containing 10% fetal bovine serum and 100 μg/ml (100 units/ml) of streptomycin under the condition of 37° C. and 5% CO2 (hereinafter, the same applies).

vegf IresRNA = vegf IresRNA by Northern blotting in siRNA-transfected HCT116 cells; settings: HCT116, 18 hours after transfection, vs control cells
Method: (§3) Whether or not vegf siRNA promotes the apoptosis sensitivity of cells was examined. In the same manner as in Example A1 except that HCT116 cells (parent cells, wild-type p53) were used instead of the HepG2 cells (wild-type p53), the vegf siRNA #1 vectors expressing siRNA #1, the vegf siRNA #2 vectors expressing siRNA #2, and the control siRNA vectors described above were respectively transfected into the HCT116 cells (parent cells, wild-type p53). Then, with regard to the cells after 18 hours from the transfection, the expression levels of vegf mRNA and gapdh mRNA were analyzed by quantitative RT-PCR (means±SD, n=4) and the expression levels of vegf IresRNA and gapdh mRNA were analyzed by Northern blotting. Also, with regard to HCT116 cells not transfected with the above-described recombinant vectors, the analyses were conducted in the same manner. The quantitative RT-PCR was conducted in the same manner as in Example B1, except that a primer set for vegf mRNA was used.

vegf mRNA [3] = experiment: vegf mRNA by quantitative RT-PCR in siRNA-transfected HCT116 cells; settings: HCT116, 18 hours after transfection, ratio to gapdh mRNA
Method: From 1 μg of total RNA, cDNA was synthesized using SuperScriptII RNaseH(−) reverse transcriptase (Invitrogen), and PCR was performed using primers for amplification-purpose nucleic sequences with the cDNA being a template. The amplification and the quantitative analysis of PCR products were performed using Applied Biosystems 7500 (Applied Biosystems) by the method recommended by the manufacturer.
as §3

Row | Substance | proportion of apoptosis (parent cells HCT116) | expression induction of noxa mRNA, puma mRNA, and p21 mRNA [1] | increase in proportion of apoptosis on siRNA expression (p53-deleted cells HCT116) | induction of the expressions of bax mRNA and noxa mRNA by 5-FU (bax mRNA and noxa mRNA) | enhancement of apoptosis when cells were treated with rVEGF protein (HCT116 cells) | apoptosis by treatments with anticancer agents of low concentrations (HCT116 cells) | expression amount of vegf mRNA (vegf mRNA [2]) | amount of the expressed vegf IresRNA (vegf IresRNA) | amount of the vegf mRNA expressed (vegf mRNA [3])
1 | siRNA #1: siRNA against vegf mRNA, SEQ ID NO 3/4, antisense complementary to bases 1062-1082 in SEQ ID NO. 1; expressed from pcDNA6.2-GW/EmGFP-miR vector (sense GCAUUGGACUUGCCUUGCUNN; antisense AGCAAGGCAAGGCUCCAAUGCNN) | increased markedly | enhanced markedly | little increase | promoted markedly | affected very little | enhanced markedly | decreased markedly | decreased | decreased markedly
2 | siRNA #2: siRNA against vegf mRNA, SEQ ID NO 5/6, antisense complementary to bases 1067-1087 in SEQ ID NO. 1; vector-expressed (sense GGAGCCUUGUUGCUGCUCUNN; antisense AGAGCAGCAAGGCAAGGCUCCNN) | increased markedly | enhanced markedly | little increase | promoted markedly | affected very little | enhanced markedly | decreased markedly | decreased markedly | decreased markedly
